In paper PMC7413254 (Nature Communications, 2020):
Like-named read-outs stand apart in the source and are kept apart here.

Legend:
[1] = molecular target: T1, PfCRT^3D7 (Plasmodium falciparum, UniProt Q8IBZ9); assay: cell-based; type: cell-based; conditions: total [3H]CQ transport; for inhibition at 500 µM: [test solute] = 0.5 mM; for inhibition at 1000 µM: [test solute] = 1 mM; for inhibition at 2000 µM: [test solute] = 2 mM
Procedure, shortened: (§1)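 Transport runs from the acidic bath into the cytosol, analogous to PfCRT-mediated efflux out of the vacuole. Non-expressing oocytes act as background.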

[2] = test system: PfCRT; assay: Potential co-substrates tested for influx of VF-6 via PfCRT into the oocyte; type: cell-based, Plasmodium falciparum; parameters: key: X: Compounds that have been tested as potential co-substrates but are not required for influx of VF-6 via PfCRT into the oocyte
[3] = molecular target: T1, PfCRT^3D7; assay: cell-based; type: cell-based
Procedure, shortened: (§2)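 Oocytes (ten per treatment, ≥4 independent frogs/days) were preloaded by injecting VF-6 in 25 nL ND96 at pH 5.0, 5.5, 6.0 or 7.0, or Na^+-free choline buffer, then uptake run 1.5 h, 27.5 °C, ND96 pH 5.5 by default. Internal concentrations assumed ~400 nL oocyte volume.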

[4] = molecular target: T2, PfCRT^Ecu1110 (Plasmodium falciparum, UniProt Q9N623, A220S/I356L/K76T/N326D); assay: cell-based; type: cell-based; conditions: […]
T2 sequence (Q9N623 whole entry A220S/I356L/K76T/N326D): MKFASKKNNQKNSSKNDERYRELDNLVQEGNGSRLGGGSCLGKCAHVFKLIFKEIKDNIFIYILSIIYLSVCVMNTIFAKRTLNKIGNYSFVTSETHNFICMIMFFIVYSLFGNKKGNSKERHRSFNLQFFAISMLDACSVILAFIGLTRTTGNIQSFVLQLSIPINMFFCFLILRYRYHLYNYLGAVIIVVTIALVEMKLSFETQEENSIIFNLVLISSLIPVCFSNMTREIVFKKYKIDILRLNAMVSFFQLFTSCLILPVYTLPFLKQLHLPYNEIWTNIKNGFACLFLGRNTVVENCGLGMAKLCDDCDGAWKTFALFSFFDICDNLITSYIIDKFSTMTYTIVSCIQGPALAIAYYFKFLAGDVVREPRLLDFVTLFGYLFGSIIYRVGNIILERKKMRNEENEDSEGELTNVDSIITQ
Procedure, shortened: as §2

[5] = molecular target: T3, PfCRT^Dd2 (Plasmodium falciparum, UniProt Q9N623, A220S/I356T/K76T/M74I/N326S/N75E/Q271E/R371I); assay: cell-based; type: cell-based; conditions: […]; for activity at 45000 µM: [test solute]i = 45 mM (30 mM for some solutes due to solubility)
T3 sequence (Q9N623 whole entry A220S/I356T/K76T/M74I/N326S/N75E/Q271E/R371I): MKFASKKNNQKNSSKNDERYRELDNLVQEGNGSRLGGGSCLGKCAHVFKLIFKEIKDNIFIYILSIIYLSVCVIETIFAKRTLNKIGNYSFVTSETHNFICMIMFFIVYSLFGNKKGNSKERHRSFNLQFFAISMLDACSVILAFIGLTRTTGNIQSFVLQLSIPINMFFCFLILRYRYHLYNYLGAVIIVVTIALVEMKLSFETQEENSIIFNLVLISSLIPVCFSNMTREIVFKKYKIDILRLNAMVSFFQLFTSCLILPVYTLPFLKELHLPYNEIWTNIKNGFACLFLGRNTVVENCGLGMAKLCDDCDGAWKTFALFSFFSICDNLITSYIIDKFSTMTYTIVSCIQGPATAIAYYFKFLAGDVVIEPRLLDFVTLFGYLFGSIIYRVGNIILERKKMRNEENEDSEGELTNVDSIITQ
Procedure, shortened: as §2

[6] = molecular target: T4, PfNT1 (Plasmodium falciparum, UniProt Q8IDM6); assay: cell-based; type: cell-based; conditions: for activity at 5000 µM: total [3H]CQ transport
T4 construct: expressed in transfected cells; host or cells: Xenopus laevis oocytes (stage V-VI), cRNA-injected
T4 sequence (Q8IDM6 whole entry): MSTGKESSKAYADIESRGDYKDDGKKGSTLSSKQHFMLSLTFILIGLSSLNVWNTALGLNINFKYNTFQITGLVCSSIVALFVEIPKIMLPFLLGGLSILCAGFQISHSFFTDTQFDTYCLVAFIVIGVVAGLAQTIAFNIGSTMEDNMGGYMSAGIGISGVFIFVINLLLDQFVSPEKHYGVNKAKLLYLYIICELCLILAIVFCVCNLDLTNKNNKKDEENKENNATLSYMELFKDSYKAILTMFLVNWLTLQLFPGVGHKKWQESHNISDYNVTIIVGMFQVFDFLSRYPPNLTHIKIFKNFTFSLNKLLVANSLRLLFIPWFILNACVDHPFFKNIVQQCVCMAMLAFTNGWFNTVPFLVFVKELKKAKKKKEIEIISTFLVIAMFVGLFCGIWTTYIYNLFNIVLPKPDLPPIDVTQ
Procedure, shortened: as §2

[7] = molecular target: T2, PfCRT^Ecu1110; assay: [3H]CQ uptake into Xenopus oocytes, cis-inhibition by unlabelled solute; type: cell-based
Procedure, shortened: as §1

[8] = molecular target: T3, PfCRT^Dd2; assay: as above; type: cell-based
Procedure, shortened: as §1

[9] = test system: PfCRT; assay: Influx of VF-6 via PfCRT into the oocyte, solutes tested as potential co-substrates; type: cell-based, Plasmodium falciparum; parameters: key: X: Compounds that have been tested as potential co-substrates but are not required for influx of VF-6 via PfCRT into the oocyte; conditions: X marks the solute
[10] = test system: non-expressing oocytes; assay: cells; type: cell-based, Xenopus laevis; conditions: Xenopus laevis, Oocyte
Procedure, shortened: as §1

[11] = test system: non-expressing oocytes; type: cell-based, Xenopus laevis; conditions: total [3H]CQ transport; for Uptake of [3H]CQ (% non-expressing oocyte control), trans-stimulation: non-expressing oocytes, normalised to the oocyte type control; for Uptake of [3H]CQ (% PfCRTDd2 control), trans-stimulation, non-expressing oocytes: mean ± SEM, SEM
Procedure, shortened: as §2

[12] = PfCRT3D7 oocytes, normalised to the oocyte type control, read-out: Uptake of [3H]CQ (% PfCRT3D7 control), cis-inhibition
[13] = mean ± SEM, SEM, read-out: Uptake of [3H]CQ (% PfCRTDd2 control), cis-inhibition, PfCRT3D7
[14] = read-out: PfCRT-mediated [3H]CQ transport, cis-inhibition (% PfCRTEcu1110 control)
[15] = read-out: Uptake of [3H]CQ (% PfCRTDd2 control), cis-inhibition, PfCRTEcu1110, SEM
[16] = read-out: Uptake of [3H]CQ (% PfCRTEcu1110 control), cis-inhibition
[17] = read-out: [3H]CQ transport (% PfCRTEcu1110 control), cis-inhibition, PfCRTEcu1110, SEM
[18] = read-out: PfCRT-mediated [3H]CQ transport, cis-inhibition (% PfCRTDd2 control)
[19] = read-out: Uptake of [3H]CQ (% PfCRTDd2 control), cis-inhibition, PfCRTDd2, SEM
[20] = read-out: Uptake of [3H]CQ (% PfCRTDd2 control), cis-inhibition, non-expressing oocytes, SEM
[21] = read-out: Uptake of [3H]CQ (% non-expressing oocyte control), cis-inhibition

T1 sequence (Q8IBZ9 59-398): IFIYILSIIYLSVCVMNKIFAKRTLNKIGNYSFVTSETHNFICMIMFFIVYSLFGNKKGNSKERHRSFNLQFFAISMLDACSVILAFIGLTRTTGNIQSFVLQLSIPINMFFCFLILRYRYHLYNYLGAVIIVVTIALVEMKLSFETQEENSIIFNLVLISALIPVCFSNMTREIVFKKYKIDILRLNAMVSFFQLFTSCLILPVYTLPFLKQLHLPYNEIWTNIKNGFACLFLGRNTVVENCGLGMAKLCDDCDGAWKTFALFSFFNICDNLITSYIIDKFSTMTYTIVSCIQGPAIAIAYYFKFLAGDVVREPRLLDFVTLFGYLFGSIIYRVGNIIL

NCCCC[C@H](N)C(=O)O [L-lysine]
inhibition at 500 µM [1, 12]: 100 ± 4.8% | inhibition at 1000 µM [1, 12]: 101 ± 3.7% | inhibition at 2000 µM [1, 12]: 100 ± 4.7% | inhibition at 500 µM [1, 13]: 3.4 ± 0.07% | inhibition at 1000 µM [1, 13]: 3.3 ± 0.03% | inhibition at 2000 µM [1, 13]: 3.1 ± 0.07% | Tested as potential co-substrate but not required for influx of VF-6 via PfCRT into the oocyte [2]: X | activity at 5000 µM ([3]; PfCRT3D7 oocytes, [test solute]i = 5 mM, total [3H]CQ transport, normalised to the oocyte type control, read-out: Uptake of [3H]CQ (% PfCRT3D7 control), trans-stimulation): 99 ± 3.7% | [3H]CQ transport (% PfCRT3D7 control), trans-stimulation, PfCRT3D7 ([3]; SEM): 0.3 ± 0.02 % PfCRT3D7 control | activity at 5000 µM ([3]; [test solute]i = 5 mM (intracellular), PfCRT3D7 oocytes, normalised to oocyte type control, read-out: PfCRT-mediated [3H]CQ transport, trans-stimulation (% PfCRT3D7 control)): 97 ± 2% | activity at 45000 µM ([3]; SEM, read-out: Uptake of [3H]CQ (% PfCRTDd2 control), trans-stimulation, PfCRT3D7): 3.3 ± 0.06% | activity at 45000 µM ([3]; read-out: PfCRT-mediated [3H]CQ transport, trans-stimulation (% PfCRT3D7 control)): 96 ± 1.9% | activity at 45000 µM ([3]; read-out: Uptake of [3H]CQ (% PfCRT3D7 control), trans-stimulation): 98 ± 2.4% | activity at 5000 µM ([3]; total [3H]CQ transport, [test solute]i = 5 mM (intracellular), mean ± SEM, SEM, read-out: Uptake of [3H]CQ (% PfCRTDd2 control), trans-stimulation, PfCRT3D7): 3.3 ± 0.05% | activity at 5000 µM ([4]; pH 5.5, read-out: PfCRT-mediated [3H]CQ transport, trans-stimulation (% PfCRTEcu1110 control), [test solute]i = 5 mM (intracellular), PfCRTEcu1110 oocytes, normalised to oocyte type control): 95 ± 3.8% | activity at 5000 µM ([4]; pH 5.5, read-out: Uptake of [3H]CQ (% PfCRTEcu1110 control), trans-stimulation, PfCRTEcu1110 oocytes, [test solute]i = 5 mM, total [3H]CQ transport, normalised to the oocyte type control): 97 ± 4.4% | activity at 45000 µM ([4]; pH 5.5, read-out: Uptake of [3H]CQ (% PfCRTEcu1110 control), trans-stimulation, PfCRTEcu1110 oocytes, [test solute]i = 45 mM (30 mM for some solutes due to solubility), total [3H]CQ transport, normalised to the oocyte type control): 99 ± 4.2% | activity at 5000 µM ([4]; read-out: Uptake of [3H]CQ (% PfCRTDd2 control), trans-stimulation, PfCRTEcu1110, total [3H]CQ transport, [test solute]i = 5 mM (intracellular), mean ± SEM, SEM): 35 ± 1.8% | activity at 45000 µM ([4]; read-out: Uptake of [3H]CQ (% PfCRTDd2 control), trans-stimulation, PfCRTEcu1110, total [3H]CQ transport, [test solute]i = 45 mM (intracellular; 30 mM for some solutes due to solubility), mean ± SEM, SEM): 35 ± 1.6% | activity at 5000 µM ([5]; pH 5.5, read-out: PfCRT-mediated [3H]CQ transport, trans-stimulation (% PfCRTDd2 control), [test solute]i = 5 mM (intracellular), PfCRTDd2 oocytes, normalised to oocyte type control): 97 ± 3.4% | activity at 5000 µM ([5]; pH 5.5, read-out: Uptake of [3H]CQ (% PfCRTDd2 control), trans-stimulation, PfCRTDd2, total [3H]CQ transport, [test solute]i = 5 mM (intracellular), mean ± SEM, SEM): 99 ± 2.4% | activity at 5000 µM ([5]; pH 5.5, read-out: Uptake of [3H]CQ (% PfCRTDd2 control), trans-stimulation, PfCRTDd2 oocytes, [test solute]i = 5 mM, total [3H]CQ transport, normalised to the oocyte type control): 99 ± 2.4% | activity at 45000 µM ([5]; pH 5.5, read-out: Uptake of [3H]CQ (% PfCRTDd2 control), trans-stimulation, PfCRTDd2 oocytes, total [3H]CQ transport, normalised to the oocyte type control): 97 ± 3.2% | activity at 5000 µM ([5]; pH 5.5, read-out: [3H]CQ transport (% PfCRTDd2 control), trans-stimulation, PfCRTDd2, trans-stimulation, [test solute]i = 5 mM (injected), PfCRT-mediated component (background subtracted), mean ± SEM, SEM): 97 ± 3.4% | activity at 45000 µM ([5]; pH 5.5, read-out: [3H]CQ transport (% PfCRTDd2 control), trans-stimulation, PfCRTDd2, trans-stimulation, PfCRT-mediated component (background subtracted), mean ± SEM, SEM): 95 ± 4.5% | activity at 5000 µM ([6]; PfNT1 oocytes, [test solute]i = 5 mM, normalised to the oocyte type control, read-out: Uptake of [3H]CQ (% PfNT1 control), trans-stimulation): 100 ± 3.6% | activity at 45000 µM ([6]; SEM, read-out: Uptake of [3H]CQ (% PfCRTDd2 control), trans-stimulation, PfNT1): 2.8 ± 0.05% | activity at 45000 µM ([6]; read-out: Uptake of [3H]CQ (% PfNT1 control), trans-stimulation): 99 ± 3.7% | activity at 5000 µM ([6]; [test solute]i = 5 mM (intracellular), mean ± SEM, SEM, read-out: Uptake of [3H]CQ (% PfCRTDd2 control), trans-stimulation, PfNT1): 2.1 ± 0.01% | inhibition at 500 µM [7, 14]: 93 ± 6.7% | inhibition at 1000 µM [7, 14]: 97 ± 5.2% | inhibition at 2000 µM [7, 14]: 96 ± 4.1% | inhibition at 500 µM [7, 15]: 31 ± 1.9% | inhibition at 1000 µM [7, 15]: 32 ± 1.8% | inhibition at 2000 µM [7, 15]: 32 ± 1% | inhibition at 500 µM [7, 16]: 95 ± 3.6% | inhibition at 1000 µM [7, 16]: 99 ± 4.6% | inhibition at 2000 µM [7, 16]: 98 ± 3.2% | inhibition at 500 µM [7, 17]: 28 ± 1.6% | inhibition at 1000 µM [7, 17]: 29 ± 0.2% | inhibition at 2000 µM [7, 17]: 29 ± 0.2% | inhibition at 500 µM [8, 18]: 93 ± 5.2% | inhibition at 1000 µM [8, 18]: 99 ± 3.6% | inhibition at 2000 µM [8, 18]: 95 ± 4.1% | inhibition at 500 µM [8, 19]: 96 ± 3.1% | inhibition at 1000 µM [8, 19]: 100 ± 2.8% | inhibition at 2000 µM [8, 19]: 97 ± 3.2% | Compounds that have been tested as potential co-substrates but are not required for influx of VF-6 via PfCRT into the oocyte [9]: X | inhibition at 500 µM [10, 20]: 2.9 ± 0.03% | inhibition at 1000 µM [10, 20]: 3.3 ± 0.07% | inhibition at 2000 µM [10, 20]: 3.3 ± 0.03% | inhibition at 500 µM [10, 21]: 101 ± 6.3% | inhibition at 1000 µM [10, 21]: 101 ± 3.6% | inhibition at 2000 µM [10, 21]: 100 ± 3.6% | Uptake of [3H]CQ (% non-expressing oocyte control), trans-stimulation ([11]; [test solute]i = 5 mM): 101 ± 3.2 % non-expressing oocyte control | Uptake of [3H]CQ (% non-expressing oocyte control), trans-stimulation ([11]; [test solute]i = 45 mM (30 mM for some solutes due to solubility)): 99 ± 3.2 % non-expressing oocyte control | Uptake of [3H]CQ (% PfCRTDd2 control), trans-stimulation, non-expressing oocytes ([11]; [test solute]i = 5 mM (intracellular)): 2.3 ± 0.03 % PfCRTDd2 control | Uptake of [3H]CQ (% PfCRTDd2 control), trans-stimulation, non-expressing oocytes ([11]; [test solute]i = 45 mM (intracellular; 30 mM for some solutes due to solubility)): 3.3 ± 0.03 % PfCRTDd2 control
